What was measured:
[1] = system: yeast strains expressing the human α-synuclein; assay: Yeast α-synuclein toxicity rescue assay (OD600 growth); details: 40 h; for EC50: read-out: α-Syn EC50; for Emax: read-out: α-Syn Emax
[2] = molecular target: T1, SCD5 (Homo sapiens, UniProt Q86SK9); assay: Growth inhibition of humanized yeast strain expressing SCD5 as sole desaturase; format: cell-based; details: humanized yeast strain expressing SCD5
T1 construct: host or cells: S. cerevisiae ole1Δ strain (W303 pdr1Δ pdr3Δ background), plasmid pRS316 with TDH3 promoter and CYC1 terminator
T1 sequence (Q86SK9 1-330): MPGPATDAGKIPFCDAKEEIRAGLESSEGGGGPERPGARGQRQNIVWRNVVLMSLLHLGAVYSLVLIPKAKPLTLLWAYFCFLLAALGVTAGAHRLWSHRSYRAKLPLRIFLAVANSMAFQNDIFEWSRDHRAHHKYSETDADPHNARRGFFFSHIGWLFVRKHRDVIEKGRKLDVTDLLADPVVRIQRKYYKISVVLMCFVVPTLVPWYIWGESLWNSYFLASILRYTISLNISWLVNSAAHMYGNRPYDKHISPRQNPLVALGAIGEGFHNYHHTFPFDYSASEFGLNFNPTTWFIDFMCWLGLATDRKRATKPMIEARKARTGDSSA
Method in brief: (§1)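 Plasmid-complemented ole1Δ yeast, drug-pump deleted (pdr1Δ pdr3Δ), depend solely on the introduced Ole1, SCD1 or SCD5 desaturase. Compounds are added from DMSO to cells in uracil-free galactose medium, 2× density 0.02, and OD600 is read after 24 h or 40 h respectively.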

[3] = molecular target: T2, Ole1 (Saccharomyces cerevisiae, UniProt P21147); assay: Growth inhibition of yeast strain expressing Ole1 as sole desaturase; format: cell-based; details: yeast strain expressing Ole1 as sole desaturase
T2 construct: expressed in transfected cells; host or cells: S. cerevisiae ole1Δ strain (W303 pdr1Δ pdr3Δ background), plasmid pRS316 with TDH3 promoter and CYC1 terminator
T2 sequence (P21147 1-510): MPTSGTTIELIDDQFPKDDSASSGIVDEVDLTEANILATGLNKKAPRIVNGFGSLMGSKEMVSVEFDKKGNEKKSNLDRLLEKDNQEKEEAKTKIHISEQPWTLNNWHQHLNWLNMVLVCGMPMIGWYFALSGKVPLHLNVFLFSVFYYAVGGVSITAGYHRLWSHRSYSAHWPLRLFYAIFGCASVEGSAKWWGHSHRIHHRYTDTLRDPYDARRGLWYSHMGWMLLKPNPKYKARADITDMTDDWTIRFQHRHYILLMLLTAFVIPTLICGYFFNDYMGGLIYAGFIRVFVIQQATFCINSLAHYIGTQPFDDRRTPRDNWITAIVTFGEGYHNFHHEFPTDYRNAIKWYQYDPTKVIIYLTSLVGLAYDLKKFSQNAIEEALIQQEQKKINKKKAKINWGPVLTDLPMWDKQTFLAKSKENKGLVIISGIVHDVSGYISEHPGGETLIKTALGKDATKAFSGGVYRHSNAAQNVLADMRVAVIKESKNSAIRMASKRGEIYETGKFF
Method in brief: as §1

[4] = molecular target: T3, SCD1 (Homo sapiens, UniProt O00767); assay: Growth inhibition of humanized yeast strain expressing SCD1 as sole desaturase; format: cell-based; details: humanized yeast strain expressing SCD1
T3 construct: host or cells: S. cerevisiae ole1Δ strain (W303 pdr1Δ pdr3Δ background), plasmid pRS316 with TDH3 promoter and CYC1 terminator
T3 sequence (O00767 1-359): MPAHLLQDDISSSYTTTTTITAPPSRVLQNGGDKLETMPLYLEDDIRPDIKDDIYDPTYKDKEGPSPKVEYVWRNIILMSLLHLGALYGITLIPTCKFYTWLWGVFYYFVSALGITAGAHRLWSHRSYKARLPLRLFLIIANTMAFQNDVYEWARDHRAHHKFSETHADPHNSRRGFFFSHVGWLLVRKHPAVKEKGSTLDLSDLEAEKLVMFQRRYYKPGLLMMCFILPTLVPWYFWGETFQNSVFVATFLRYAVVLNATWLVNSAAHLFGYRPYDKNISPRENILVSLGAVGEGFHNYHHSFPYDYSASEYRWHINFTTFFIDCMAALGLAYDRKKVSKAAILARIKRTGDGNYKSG
Method in brief: as §1

| SMILES | EC50 [1] [µM] | Emax [1] [%] | IC50 [2] [µM] | SCD5 % Max Inhibition [2] [%] | IC50 [3] [µM] | OLE1 % Max Inhibition [3] [%] | IC50 [4] [µM] | SCD1 % Max Inhibition [4] [%] |
| --- | --- | --- | --- | --- | --- | --- | --- | --- |
| COc1ccc(-c2noc(C3CCN(C(=O)C(C)(C)NC(=O)c4ccccc4)CC3)n2)cc1OC [Compound 29] | 13.9 | 38 | > 45 | 74.10 | > 45 | 91.00 | > 45 | 69.52 |
| CCN1CCOc2cc(-c3noc(C4CCN(C(=O)CNC(=O)c5ccccc5)CC4)n3)ccc21 [Compound 110] | 4.49 | 374 | > 45 | 65.07 | > 45 | 96.31 | > 45 | 66.85 |
| Cc1nn(C)c2cc(-c3noc(C4CCN(C(=O)CNC(=O)c5ccccc5)CC4)n3)ncc12 [Compound 114] | 17.3 | 373 | > 45 | 77.66 | > 45 | 90.17 | > 45 | 74.54 |
| COc1ccnc(C(=O)NCC(=O)N2CCC(c3nc(-c4ccc5c(C)nn(C)c5c4)no3)CC2)c1 [Compound 150] | 0.099 | 473 | > 45 | 86.15 | > 45 | 5.16 | > 45 | 74.48 |
| Cc1nn(C)c2cc(-c3noc(C4CCN(C(=O)C5CC(=O)N(c6ccc(C#N)cc6)C5)CC4)n3)ccc12 (stereo not drawn) [Compound 139] | 0.021 | 437 | > 45 | 75.11 | > 45 | 25.30 | > 45 | 87.50 |
| CCOc1ncc(-c2noc(C3CCN(C(=O)C4CC(=O)N(c5ccccc5)C4)CC3)n2)cc1OC (stereo not drawn) [Compound 130] | 1.44 | 328 | > 45 | 99.82 | > 45 | 2.75 | > 45 | 97.82 |
| Cc1nn(C)c2cc(-c3noc(C4CCN(C(=O)C5CC(=O)N(c6ccccc6)C5)CC4)n3)ncc12 (stereo not drawn) [Compound 120] | 19.5 | 139 | > 45 | 96.39 | > 45 | 119.08 | > 45 | 99.80 |
| CCOc1ccc(-c2noc(C3CCN(C(=O)CN4Cc5ccccc5C4=O)CC3)n2)cc1OC [Compound 106] | 0.1 | 415 | > 45 | 71.22 | > 45 | 35.35 | > 45 | 78.19 |
| Cc1nn(C)c2cc(-c3noc(C4CCN(C(=O)[C@H]5CC(=O)N(c6ccccc6)C5)CC4)n3)ccc12 [compound 90] | 1.65 | 281 | > 45 |  | > 45 |  | > 45 |  |
| CCOc1cnc(-c2noc(C3CCN(C(=O)C4CC(=O)N(c5ccccc5)C4)CC3)n2)cc1OC (stereo not drawn) [Compound 118] | 15.7 | 65 | 27.5 | 32.21 | > 45 | 87.29 | > 45 | 93.37 |
| COc1ccccc1-c1noc(C2CCN(C(=O)CNC(=O)c3ccccc3)CC2)n1 [compound 12] | 16.2 | 43 | > 45 |  | > 45 |  | > 45 |  |
| Cc1nn(C)c2cc(-c3noc(C4CCN(C(=O)CNC(=O)c5ccccc5)CC4)n3)cnc12 [Compound 137] | 1.05 | 376 | 22.3 | 50.61 | > 45 | 96.83 | > 45 | 90.19 |
| Cn1c(=O)[nH]c2ccc(-c3noc(C4CCN(C(=O)CN5Cc6ccccc6C5=O)CC4)n3)cc21 [Compound 133] | 6.38 | 281 | > 45 | 74.75 | > 45 | 26.72 | 37.3 | 61.21 |
| COc1ccc(-c2noc(C3CCN(C(=O)C4CC(=O)N(C5CCCCC5)C4)CC3)n2)cc1OC (stereo not drawn) [Compound 125] | 16.7 | 200 | > 45 | 94.83 | > 45 | 92.36 | > 45 | 77.68 |
| Cc1nn(C)c2cc(-c3noc(C4CCN(C(=O)[C@@H]5CC(=O)N(c6ccccc6)C5)CC4)n3)ccc12 [compound 91] | 0.107 | 452 | > 45 |  | > 45 |  | > 45 |  |
| Cc1nn(C)c2cc(-c3noc(C4CCN(C(=O)C(C)N5Cc6ccccc6C5=O)CC4)n3)ccc12 (stereo not drawn) [Compound 141] | 0.019 | 259 | > 45 | 78.91 | > 45 | 1.77 | > 45 | 86.53 |
| CCOc1ccc(-c2noc(C3CCN(C(=O)CN4Cc5ccccc5C4=O)CC3)n2)nc1OC [Compound 142] | 7.64 | 319 | > 45 | 26.00 | > 45 | 1.11 | > 45 | 80.83 |
| O=C(NCC(=O)N1CCC(c2nc(-c3ccccn3)no2)CC1)c1ccccc1 [compound 78] | 14.6 | 38 | > 45 |  | 38.3 |  | > 45 |  |

From patent US11873298B2, “Compounds and uses thereof” (JANSSEN PHARMACEUTICA NV, priority 2017, dated 2024)
